The target in test [1] is T1, L-type Ca2+ channel (LTCC, Cav1.2) (Rattus norvegicus, UniProt P22002).
T1 construct: gene Cacna1c; native channel in single rat tail main artery myocytes
The experiment in a line: whole-cell patch clamp, IBa(L); also potentiates [3H]diltiazem binding in rat cardiomyocytes ([…]). In kind it is cell-based. In general terms: In patch-clamp work, channel activity is measured electrically.

Test [2] has as its target T1, L-type Ca2+ channel (LTCC, Cav1.2). Briefly: whole-cell patch clamp, IBa(L). In kind it is cell-based.

SMILES strings stand for the structures.

T1 sequence (P22002 whole entry): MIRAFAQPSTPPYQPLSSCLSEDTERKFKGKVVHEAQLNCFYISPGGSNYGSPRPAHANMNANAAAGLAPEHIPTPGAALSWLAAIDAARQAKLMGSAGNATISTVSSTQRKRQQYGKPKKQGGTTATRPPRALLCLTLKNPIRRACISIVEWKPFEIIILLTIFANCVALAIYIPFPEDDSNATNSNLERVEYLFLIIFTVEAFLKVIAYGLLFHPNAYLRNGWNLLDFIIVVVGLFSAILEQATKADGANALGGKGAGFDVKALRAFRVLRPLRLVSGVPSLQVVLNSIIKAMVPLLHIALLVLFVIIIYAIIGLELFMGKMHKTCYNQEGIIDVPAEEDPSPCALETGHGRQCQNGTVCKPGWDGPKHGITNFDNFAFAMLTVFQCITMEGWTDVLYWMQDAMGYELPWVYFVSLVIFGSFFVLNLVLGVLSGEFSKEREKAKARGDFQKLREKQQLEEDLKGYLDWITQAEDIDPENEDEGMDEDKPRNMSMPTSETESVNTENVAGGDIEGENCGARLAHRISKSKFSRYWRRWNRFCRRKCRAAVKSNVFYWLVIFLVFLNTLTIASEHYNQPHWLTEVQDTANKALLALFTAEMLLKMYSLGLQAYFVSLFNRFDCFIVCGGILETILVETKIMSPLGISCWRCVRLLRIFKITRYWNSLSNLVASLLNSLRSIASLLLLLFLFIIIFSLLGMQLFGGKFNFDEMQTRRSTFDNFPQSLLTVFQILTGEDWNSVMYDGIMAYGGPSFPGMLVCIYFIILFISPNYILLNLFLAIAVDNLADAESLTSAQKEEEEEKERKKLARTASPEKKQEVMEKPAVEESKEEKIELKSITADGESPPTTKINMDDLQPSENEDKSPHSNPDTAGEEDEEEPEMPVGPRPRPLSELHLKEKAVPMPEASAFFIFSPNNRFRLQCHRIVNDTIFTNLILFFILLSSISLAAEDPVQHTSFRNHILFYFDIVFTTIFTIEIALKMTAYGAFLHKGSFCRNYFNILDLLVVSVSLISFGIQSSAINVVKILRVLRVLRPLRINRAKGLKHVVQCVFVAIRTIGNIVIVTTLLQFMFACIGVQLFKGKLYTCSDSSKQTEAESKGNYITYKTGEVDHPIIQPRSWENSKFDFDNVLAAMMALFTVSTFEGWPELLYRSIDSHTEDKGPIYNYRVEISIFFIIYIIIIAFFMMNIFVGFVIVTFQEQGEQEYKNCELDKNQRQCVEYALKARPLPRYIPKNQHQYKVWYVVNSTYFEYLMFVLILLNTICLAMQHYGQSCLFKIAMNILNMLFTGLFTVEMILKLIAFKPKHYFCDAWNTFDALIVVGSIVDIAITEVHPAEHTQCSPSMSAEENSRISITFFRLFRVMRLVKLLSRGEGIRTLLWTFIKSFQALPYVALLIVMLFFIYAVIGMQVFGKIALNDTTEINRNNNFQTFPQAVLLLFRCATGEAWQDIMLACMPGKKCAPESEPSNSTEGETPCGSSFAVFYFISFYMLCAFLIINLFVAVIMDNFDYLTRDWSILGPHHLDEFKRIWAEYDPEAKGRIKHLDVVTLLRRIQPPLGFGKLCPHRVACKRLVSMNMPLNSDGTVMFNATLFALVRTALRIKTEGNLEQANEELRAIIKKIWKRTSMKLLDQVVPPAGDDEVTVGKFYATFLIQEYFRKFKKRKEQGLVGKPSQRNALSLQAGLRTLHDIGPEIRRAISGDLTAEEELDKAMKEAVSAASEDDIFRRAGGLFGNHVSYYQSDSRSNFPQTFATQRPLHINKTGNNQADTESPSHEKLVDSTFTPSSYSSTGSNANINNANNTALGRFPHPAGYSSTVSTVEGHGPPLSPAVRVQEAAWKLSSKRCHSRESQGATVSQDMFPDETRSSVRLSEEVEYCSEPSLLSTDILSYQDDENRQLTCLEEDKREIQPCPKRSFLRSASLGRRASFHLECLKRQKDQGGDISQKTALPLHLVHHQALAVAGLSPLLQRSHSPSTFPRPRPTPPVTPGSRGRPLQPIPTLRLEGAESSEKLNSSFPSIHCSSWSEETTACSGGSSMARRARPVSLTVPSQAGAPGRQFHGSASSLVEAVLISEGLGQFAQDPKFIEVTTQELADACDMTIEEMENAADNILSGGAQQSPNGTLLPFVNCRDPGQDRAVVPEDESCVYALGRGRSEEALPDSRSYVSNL

Broadly, the IC50 is the midpoint of a concentration-inhibition curve. Take `O=c1onc2n1-c1ccc(Cl)cc1SC2(O)c1ccc(Br)cc1` (centres unmarked) [compound 30, 4-(4-Bromophenyl)-7-chloro-4-hydroxy-4H-[1,2,4]oxadiazolo[3,4-c][1,4]benzothiazin-1-one]: the IC50 in test [1] is approximately 3 µM.

In test [2], `CC1=CSC(OCCN2CCCCC2)(c2ccc(Br)cc2)c2noc(=O)n21` (centres unmarked) [compound 32, 8-(4-Bromophenyl)-5-methyl-8-(2-piperidin-1-ylethoxy)-8H-[1,2,4]oxadiazolo[3,4-c][1,4]thiazin-3-one] had a half-maximal inhibitory concentration (IC50) of approximately 30 µM.

(Values after PMC6271282, “Playing with Opening and Closing of Heterocycles: Using the Cusmano-Ruccia Reaction to Develop a Novel Class of Oxadiazolothiazinones, Active as Calcium Channel Modulators and P-Glycoprotein Inhibitors” (Molecules, 2014).)
